This is an account of results in US11649255B2, “Indazoles as hematopoietic progenitor kinase 1 (HPK1) inhibitors and methods using same” (1st Biotherapeutics, Inc., priority 2020, dated 2023).

This experiment deals with recombinant human HPK1 (Homo sapiens (Human), UniProt Q92918). Briefly: HPK1 kinase assay (ADP-Glo). To be noted: 25 μM ATP, MBP substrate. It counts as biochemical. The procedure: HPK1 kinase activity was measured by Promega's ADP-Glo™ kinase assay. In this assay, 5 ng of recombinant human HPK1 (signalchem) is incubated with 5 μL of compounds (0.5% DMSO), 5 μL of MBP (0.5 μg/μl) and 5 μL of ATP (25 μM) in buffer (40 mM Tris, 7.5; 20 mM MgCl2; 0.1 mg/ml BSA; 5 μM DTT). The assay was started by incubating the reaction mixture in a 96-well plate at 30′ C for 40 minutes. After the incubation, 25 uL ADP-Glo reagent was added and the reaction was incubated at room temperature for 40-min to stop the reaction and degrade residual ATP. The ADP product was then converted to ATP by adding 50 uL per well of detection reagent. Luminescence was detected after 30-min room temperature incubation with the Molecular device I3X plate reader. The IC50 values were calculated from a series of percent inhibition values determined at a range of inhibitor concentration using software routines as implemented in the GraphPad Prism 7 software and SigmaPlot13.0.
Chain of recombinant human HPK1 (Q92918 whole entry): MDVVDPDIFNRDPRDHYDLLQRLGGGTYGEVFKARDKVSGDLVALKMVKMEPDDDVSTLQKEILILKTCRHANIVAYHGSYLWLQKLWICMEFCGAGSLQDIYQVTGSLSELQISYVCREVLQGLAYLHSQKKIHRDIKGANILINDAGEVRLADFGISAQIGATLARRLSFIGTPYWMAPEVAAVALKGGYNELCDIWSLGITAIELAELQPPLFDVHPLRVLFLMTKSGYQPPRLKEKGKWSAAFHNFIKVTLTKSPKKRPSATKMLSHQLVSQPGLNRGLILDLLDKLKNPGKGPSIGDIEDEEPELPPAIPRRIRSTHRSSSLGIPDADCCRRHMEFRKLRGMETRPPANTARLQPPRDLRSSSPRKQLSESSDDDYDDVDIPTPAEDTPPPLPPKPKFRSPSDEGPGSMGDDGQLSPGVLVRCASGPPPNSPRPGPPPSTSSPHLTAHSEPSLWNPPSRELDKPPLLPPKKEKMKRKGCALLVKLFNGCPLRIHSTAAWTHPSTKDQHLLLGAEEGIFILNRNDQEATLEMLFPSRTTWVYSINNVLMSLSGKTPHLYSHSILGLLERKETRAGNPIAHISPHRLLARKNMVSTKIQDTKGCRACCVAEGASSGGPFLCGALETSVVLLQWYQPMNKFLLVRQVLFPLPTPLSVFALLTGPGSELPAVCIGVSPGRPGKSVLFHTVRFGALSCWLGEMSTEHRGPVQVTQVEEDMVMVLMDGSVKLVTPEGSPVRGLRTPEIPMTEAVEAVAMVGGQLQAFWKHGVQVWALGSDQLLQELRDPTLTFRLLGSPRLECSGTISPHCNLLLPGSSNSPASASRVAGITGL
(In ADP-Glo the light output rises with the ADP produced.)
Turning to `COc1c(F)cc2[nH]ncc2c1-c1ccc2nc(NC(=O)[C@@H]3C[C@@H]3F)sc2n1` [Example 155, (1S,2S)-2-fluoro-N-(5-(6-fluoro-5-methoxy-1H-indazol-4-yl)thiazolo[5,4-b]pyridin-2-yl)cyclopropane-1-carboxamide], the IC50 was under 100 nM.

Turning to `Cc1ccc2[nH]ncc2c1-c1ccc2nc(NC(=O)C3CC(F)(F)C3)sc2c1` [Example 11, 3,3-difluoro-N-(6-(5-methyl-1H-indazol-4-yl)benzo[d]thiazol-2-yl)cyclobutane-1-carboxamide], the IC50 fell in the range of 501 to 1000 nM. As to `O=C(Nc1cn2cc(-c3c(Cl)c(F)cc4[nH]ncc34)ccc2n1)C1CC1` [Example 242, N-(6-(5-chloro-6-fluoro-1H-indazol-4-yl)imidazo[1,2-a]pyridin-2-yl)cyclopropanecarboxamide], the 50% inhibitory concentration (IC50) lay in the range of 101 to 500 nM. In the case of `O=C(Nc1nc2ccc(-c3c(Cl)c(F)cc4[nH]ncc34)cc2s1)[C@@H]1C[C@@H]1F` [Example 41, (1S,2S)-N-(6-(5-chloro-6-fluoro-1H-indazol-4-yl)benzo[d]thiazol-2-yl)-2-fluorocyclopropane-1-carboxamide], the 50% inhibitory concentration (IC50) lay in the range of 101 to 500 nM. On to `CC(=O)c1ccc2[nH]ncc2c1-c1ccc2nc(NC(=O)C3CC3)cn2c1` [Example 239, N-(6-(5-acetyl-1H-indazol-4-yl)imidazo[1,2-a]pyridin-2-yl)cyclopropanecarboxamide], for which the IC50 is under 100 nM. As for `CSc1c(F)c(N(C)C)c2[nH]ncc2c1-c1ccc2nc(NC(=O)[C@@H]3C[C@@H]3F)cn2c1` [Example 300, (1S,2S)-N-(6-(7-(dimethylamino)-6-fluoro-5-(methylthio)-1H-indazol-4-yl)imidazo[1,2-a]pyridin-2-yl)-2-fluorocyclopropane-1-carboxamide], the IC50 is under 100 nM. As for `O=C(Nc1cn2cc(-c3c(Cl)c(F)c(-n4cccc4)c4[nH]ncc34)ccc2n1)[C@@H]1C[C@@H]1F` [Example 365, (1S,2S)-N-(6-(5-chloro-6-fluoro-7-(1H-pyrrol-1-yl)-1H-indazol-4-yl)imidazo[1,2-a]pyridin-2-yl)-2-fluorocyclopropane-1-carboxamide], the figure is under 100 nM; as for `CSc1c(F)cc(-c2ccn3nc(NC(=O)[C@@H]4C[C@@H]4F)cc3c2)c2cn[nH]c12` [Example 589, (1S,2S)-2-fluoro-N-(5-(6-fluoro-7-(methylthio)-1H-indazol-4-yl)pyrazolo[1,5-a]pyridin-2-yl)cyclopropane-1-carboxamide], under 100 nM; as for `Cc1c(F)c(OC(F)(F)F)c2[nH]ncc2c1-c1ccc2nc(NC(=O)[C@@H]3C[C@@H]3F)cn2c1` [Example 345, (1S,2S)-2-fluoro-N-(6-(6-fluoro-5-methyl-7-(trifluoromethoxy)-1H-indazol-4-yl)imidazo[1,2-a]pyridin-2-yl)cyclopropane-1-carboxamide], under 100 nM.

`CN(c1nccnn1)c1c(F)c(Cl)c(-c2ccn3nc(NC(=O)[C@@H]4C[C@@H]4F)cc3c2)c2cn[nH]c12` [Example 618, (1S,2S)-N-(5-(5-chloro-6-fluoro-7-(methyl(1,2,4-triazin-3-yl)amino)-1H-indazol-4-yl)pyrazolo[1,5-a]pyridin-2-yl)-2-fluorocyclopropane-1-carboxamide]: the IC50 was under 100 nM.

With `O=C(Nc1cc2cc(-c3c(C(F)F)ccc4[nH]ncc34)ccn2n1)[C@@H]1C[C@@H]1F` [Example 465, (1S,2S)-N-(5-(5-(difluoromethyl)-1H-indazol-4-yl)pyrazolo[1,5-a]pyridin-2-yl)-2-fluorocyclopropane-1-carboxamide], the IC50 was under 100 nM.

Regarding `O=C(Nc1cc2cc(-c3c(Cl)c(F)c(Br)c4[nH]ncc34)ccn2n1)[C@@H]1C[C@@H]1F` [Example 480, (1S,2S)-N-(5-(7-bromo-5-chloro-6-fluoro-1H-indazol-4-yl)pyrazolo[1,5-a]pyridin-2-yl)-2-fluorocyclopropane-1-carboxamide], the half-inhibitory concentration (IC50) was under 100 nM.

In the case of `CC(c1c(F)c(Cl)c(-c2ccc3nc(NC(=O)[C@@H]4C[C@@H]4F)cn3c2)c2cn[nH]c12)[S+](C)[O-]` (stereo partly drawn) [Example 443, (1S,2S)-N-(6-(5-chloro-6-fluoro-7-(1-(methylsulflnyl)ethyl)-1H-indazol-4-yl)imidazo[1,2-a]pyridin-2-yl)-2-fluorocyclopropane-1-carboxamide], the IC50 was under 100 nM.

As to `C[S+]([O-])c1c(F)cc2[nH]ncc2c1-c1ccc2nc(NC(=O)[C@@H]3C[C@@H]3F)sc2n1` (stereo partly drawn) [Example 164, (1S,2S)-2-fluoro-N-(5-(6-fluoro-5-(methylsulfinyl)-1H-indazol-4-yl)thiazolo[5,4-b]pyridin-2-yl)cyclopropane-1-carboxamide], the 50% inhibitory concentration (IC50) was over 1000 nM. Take `CNC1CCC(N(C)c2c(F)c(Cl)c(-c3ccn4nc(NC(=O)[C@@H]5C[C@@H]5F)cc4c3)c3cn[nH]c23)CC1` (stereo partly drawn) [Example 505, (1S,2S)-N-(5-(5-chloro-6-fluoro-7-(methyl((1S,4S)-4-(methylamino)cyclohexyl)amino)-1H-indazol-4-yl)pyrazolo[1,5-a]pyridin-2-yl)-2-fluorocyclopropane-1-carboxamide]: the IC50 is under 100 nM.

Turning to `CN(C)c1c(F)cc(-c2ccc3nc(NC(=O)[C@@H]4C[C@@H]4F)sc3c2)c2cn[nH]c12` [Example 139, (1S,2S)-N-(6-(7-(dimethylamino)-6-fluoro-1H-indazol-4-yl)benzo[d]thiazol-2-yl)-2-fluorocyclopropane-1-carboxamide], the IC50 was under 100 nM. Regarding `NC(=O)c1c(F)c(Cl)c(-c2ccc3nc(NC(=O)[C@@H]4C[C@@H]4F)sc3c2)c2cn[nH]c12` [Example 135, 5-chloro-6-fluoro-4-(2-((1S,2S)-2-fluorocyclopropane-1-carboxamido)benzo[d]thiazol-6-yl)-1H-indazole-7-carboxamide], the IC50 is over 1000 nM.

Consider `CN(C)C(=O)c1c(F)cc(-c2ccc3nc(NC(=O)[C@@H]4C[C@@H]4F)cn3c2)c2cn[nH]c12` [Example 354, 6-fluoro-4-(2-((1S,2S)-2-fluorocyclopropane-1-carboxamido)imidazo[1,2-a]pyridin-6-yl)-N,N-dimethyl-1H-indazole-7-carboxamide], for which the 50% inhibitory concentration (IC50) was over 1000 nM. As to `Cc1c(F)c(Cl)c2[nH]ncc2c1-c1ccc2nc(NC(=O)[C@@H]3C[C@@H]3F)sc2c1` [Example 51, (1S,2S)-N-(6-(7-chloro-6-fluoro-5-methyl-1H-indazol-4-yl)benzo[d]thiazol-2-yl)-2-fluorocyclopropane-1-carboxamide], the IC50 was under 100 nM. In the case of `CSc1c(F)c(Cl)c(-c2ccn3nc(NC(=O)[C@@H]4C[C@@H]4F)cc3c2)c2cn[nH]c12` [Example 485, (1S,2S)-N-(5-(5-chloro-6-fluoro-7-(methylthio)-1H-indazol-4-yl)pyrazolo[1,5-a]pyridin-2-yl)-2-fluorocyclopropane-1-carboxamide], the IC50 was under 100 nM.

With `C[C@@H](c1c(F)c(Cl)c(-c2ccc3nc(NC(=O)[C@@H]4C[C@@H]4F)cn3c2)c2cn[nH]c12)n1ncnn1` [Example 408, (1S,2S)-N-(6-(7-((S)-1-(2H-tetrazol-2-yl)ethyl)-5-chloro-6-fluoro-1H-indazol-4-yl)imidazo[1,2-a]pyridin-2-yl)-2-fluorocyclopropane-1-carboxamide], the IC50 is under 100 nM.

The term IC50 denotes the concentration that gives 50% inhibition.
